According to patent publication US6486206B1, “Mechanical and pharmacologic therapies to treat cardiac arrest” (CPRx Inc., priority 1997, dated 2002):

Tested on: porcine model of ventricular fibrillation
Details: pigs, standard CPR, 2 minutes after drug administration
Procedure: Vital organ blood flow was also assessed after four minutes of ventricular fibrulation, four minutes of standard CPR, and two minutes after drug administration.

Question: How did the “endocardial:epicardial ratio (mean±SEM)” value turn out when `CNC[C@H](O)c1ccc(O)c(O)c1` [epinephrine] was run?
Answer: 0.81±0.21
